Among the data in PubChem BioAssay (NCI) are TGI and GI50 values, retold here.

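Five concentrations, 48 hours, 96-well plates. GI50 = concentration required for 50% inhibition of growth. At the TGI there is no net growth.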

For orientation: TGI means the concentration giving total growth inhibition. In general, GI50 refers to the concentration at which growth is held to half of that of the control.

Test systems include EKVX NSCLC; HL-60(TB) leukemia; HOP-92 NSCLC; LOX IMVI melanoma; SF-539 CNS; SK-MEL-28 melanoma; SW-620 colon; TK-10 renal; UO-31 renal.
Experiment in all cases: DTP human tumour cell line panel, 48 h

In the case of `N#C/C(=C\c1ccc(C(O)P(=O)(O)O)cc1)C(N)=O` (configuration not stated), the TGI with EKVX NSCLC, in the experiment on HL-60(TB) leukemia, in the experiment with HOP-92 NSCLC, in the experiment with LOX IMVI melanoma, with SF-539 CNS and in the experiment with SK-MEL-28 melanoma was more than 100 µM in each case. Besides, the TGI with SW-620 colon, in the experiment with TK-10 renal and in the experiment with UO-31 renal was more than 100 µM in each case.
For the molecule `CC/C=C/c1cc2cc[nH]c2c2c1C(C)C[C@@H]2C` (some centres not stated), the TGI in the experiment on EKVX NSCLC was more than 100 µM; with HL-60(TB) leukemia, 58.3 µM; with HOP-92 NSCLC it was 62.6 µM; with LOX IMVI melanoma, 31 µM; with SF-539 CNS it was 50.1 µM; in the experiment with SK-MEL-28 melanoma, 84.4 µM. Besides, the TGI with SW-620 colon is 94.8 µM; with TK-10 renal it was more than 100 µM; with UO-31 renal, 69.6 µM.
On to `CCOP(=O)(OCC)C1=NC=CC=CC1n1c(-c2ccccc2)nn(CC)c1=O` (configuration not stated), for which the TGI in the experiment with EKVX NSCLC, in the experiment on HL-60(TB) leukemia, in the experiment with HOP-92 NSCLC, with LOX IMVI melanoma, in the experiment on SF-539 CNS and with SK-MEL-28 melanoma was more than 100 µM each time. Moreover, the TGI in the experiment on SW-620 colon and in the experiment on TK-10 renal was more than 100 µM in each case.
As for `COc1cc2c(c(OC)c1OC)-c1ccc(OC)c(=O)cc1[C@@H](N(C)C=O)CC2`, the TGI is more than 100 µM with EKVX NSCLC; 0.0329 µM in the experiment on HL-60(TB) leukemia; 0.111 µM with HOP-92 NSCLC; more than 100 µM in the experiment with LOX IMVI melanoma; 0.0247 µM in the experiment on SF-539 CNS; more than 100 µM in the experiment on SK-MEL-28 melanoma. Moreover, the TGI with SW-620 colon, in the experiment with TK-10 renal and in the experiment with UO-31 renal was more than 100 µM each time.
Take `Cc1c2c(cc3c(=O)ccn(CCN(C)C)c13)c(=O)ccn2CCN(C)C`: the TGI in the experiment on EKVX NSCLC turned out to be 29 µM; in the experiment on HL-60(TB) leukemia it was 41.6 µM; in the experiment with HOP-92 NSCLC it was 31.3 µM; with LOX IMVI melanoma it was 25.3 µM; in the experiment on SF-539 CNS it was 29.7 µM; with SK-MEL-28 melanoma it was 35.5 µM. Also, the TGI in the experiment with SW-620 colon is 20.5 µM; in the experiment on TK-10 renal, 51.3 µM; with UO-31 renal, 34.3 µM.
In the case of `O=C(c1ccc(Cl)cc1)c1ccc(OCCSCCCCCCCCCCSCCOc2ccc(C(=O)c3ccc(Cl)cc3)cc2)cc1`, the TGI in the experiment with EKVX NSCLC, in the experiment on HL-60(TB) leukemia, in the experiment with HOP-92 NSCLC, with LOX IMVI melanoma, with SK-MEL-28 melanoma and in the experiment on SW-620 colon was more than 100 µM each time. The TGI with TK-10 renal and in the experiment with UO-31 renal was more than 100 µM each time.
As for `COc1cc(Nc2nc3ccc(C(F)(F)F)cc3nc2-c2ccccc2)cc(OC)c1OC`, the TGI is 79.7 µM in the experiment with EKVX NSCLC; 6.17 µM in the experiment with HOP-92 NSCLC; 15.5 µM in the experiment on LOX IMVI melanoma; more than 100 µM in the experiment on SF-539 CNS; more than 100 µM in the experiment with SK-MEL-28 melanoma; more than 100 µM in the experiment with SW-620 colon. The TGI in the experiment on TK-10 renal is more than 100 µM; in the experiment with UO-31 renal, 55.7 µM.
For the molecule `CSc1ncnc2c1CCN2`, the GI50 in the experiment with EKVX NSCLC was more than 100 µM; in the experiment with HOP-92 NSCLC it was 75 µM; with LOX IMVI melanoma, more than 100 µM; with SK-MEL-28 melanoma it was more than 100 µM; in the experiment with SW-620 colon, more than 100 µM; in the experiment on TK-10 renal, more than 100 µM. In addition, the TGI with EKVX NSCLC, in the experiment with HOP-92 NSCLC, in the experiment with LOX IMVI melanoma, in the experiment on SK-MEL-28 melanoma, in the experiment with SW-620 colon and with TK-10 renal was more than 100 µM in each case. The TGI with UO-31 renal was more than 100 µM.
For `Cc1ccc2c(c1)CNc1ccc(C)cc1CN2`, the TGI with EKVX NSCLC, in the experiment with HL-60(TB) leukemia, in the experiment on HOP-92 NSCLC, with LOX IMVI melanoma, in the experiment on SF-539 CNS and in the experiment with SW-620 colon was more than 100 µM throughout. The TGI in the experiment with UO-31 renal is more than 100 µM.
With `N#CC1CC2(C(=O)C1=O)c1ccccc1-c1ccccc12` (configuration not stated), the TGI in the experiment on EKVX NSCLC, in the experiment on HL-60(TB) leukemia, with LOX IMVI melanoma, in the experiment with SK-MEL-28 melanoma, in the experiment on SW-620 colon and in the experiment with TK-10 renal was more than 100 µM in each case. This molecule also yielded a TGI in the experiment with UO-31 renal of more than 100 µM.
Take `C1COCCOCCOCCOCCO1.CC(=O)[CH-]C(C)=O.CC(=O)[CH-]C(C)=O.CC(=O)[CH-]C(C)=O.[V]`: the GI50 in the experiment on HL-60(TB) leukemia was 20.1 µM; in the experiment on HOP-92 NSCLC, 11.2 µM; in the experiment on LOX IMVI melanoma it was 15.1 µM; with SF-539 CNS it was 3.75 µM; with SW-620 colon it was 22.9 µM; with TK-10 renal, 14.1 µM. In addition, the GI50 in the experiment on UO-31 renal is 32.5 µM. In addition, the TGI in the experiment with HL-60(TB) leukemia was 42.2 µM; in the experiment on HOP-92 NSCLC, 44.7 µM; in the experiment with LOX IMVI melanoma it was 29.6 µM; with SF-539 CNS, 13.8 µM; in the experiment on SK-MEL-28 melanoma, 23.9 µM; in the experiment on SW-620 colon it was more than 100 µM. Also, the TGI is 52 µM in the experiment with TK-10 renal and 61.4 µM in the experiment on UO-31 renal.
Take `O=c1c2ccccc2nc(-c2cccc(Cl)c2)n1NCC1(O)OCC(O)C(O)C1O` (configuration not stated): the TGI in the experiment on EKVX NSCLC, in the experiment with HL-60(TB) leukemia, in the experiment on LOX IMVI melanoma, in the experiment with SF-539 CNS, in the experiment with SK-MEL-28 melanoma and in the experiment with SW-620 colon was more than 100 µM each time. The molecule further displayed a TGI in the experiment on UO-31 renal of more than 100 µM.
Take `Cc1cccc(C)c1NC(=O)CCc1n[nH]c(=S)o1`: the TGI was more than 100 µM in the experiment on EKVX NSCLC; more than 100 µM in the experiment with HL-60(TB) leukemia; more than 100 µM in the experiment with HOP-92 NSCLC; more than 100 µM in the experiment with SF-539 CNS; more than 100 µM in the experiment on SK-MEL-28 melanoma; 36.2 µM with SW-620 colon. For the same molecule, the TGI with TK-10 renal and with UO-31 renal was more than 100 µM each time.
On to `Clc1ccc(Nc2ccnc(NCCCNc3ccnc4cc(Cl)ccc34)n2)cc1`, for which the GI50 was 1.16 µM in the experiment with HOP-92 NSCLC; 1.67 µM with SF-539 CNS; 1.64 µM in the experiment on SK-MEL-28 melanoma; 1.49 µM with SW-620 colon; 1.94 µM in the experiment with TK-10 renal; 1.68 µM in the experiment with UO-31 renal. In addition, the TGI is 2.85 µM in the experiment with HOP-92 NSCLC; 3.19 µM in the experiment with SF-539 CNS; 3.07 µM in the experiment with SK-MEL-28 melanoma; 3.11 µM with SW-620 colon; 3.41 µM with TK-10 renal; 3.31 µM in the experiment with UO-31 renal.
As for `S=c1nc(N2CCCCC2)ss1`, the TGI amounted to 55.8 µM in the experiment with EKVX NSCLC; 44.3 µM with HL-60(TB) leukemia; 36.7 µM in the experiment with HOP-92 NSCLC; 36.6 µM with SF-539 CNS; 36.4 µM in the experiment on SK-MEL-28 melanoma; 72.4 µM with SW-620 colon. The TGI with TK-10 renal is more than 100 µM; with UO-31 renal, 39.6 µM.
